# Test results reported in PubChem BioAssay (NCI).
#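 Growth conditions: 96-well plates. Treatment: test compound, 48 hours, 5 concentrations. Analysis: linear interpolation between bracketing concentrations; unreached endpoints set to highest concentration. GI50 marks 50% less growth. At the TGI there is no net growth.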
# How the values were obtained:
# Assay in all cases: NCI tumour cell line growth inhibition, 48 h
# IGROV1 ovarian = tested on: IGROV1 ovarian
# HL-60(TB) leukemia = tested on: HL-60(TB) leukemia
# SN12C renal = tested on: SN12C renal
# ACHN renal = tested on: ACHN renal
# UACC-257 melanoma = tested on: UACC-257 melanoma
# A549 NSCLC = tested on: A549 NSCLC
# SW-620 colon = tested on: SW-620 colon
# HOP-92 NSCLC = tested on: HOP-92 NSCLC
# U251 CNS = tested on: U251 CNS
# TK-10 renal = tested on: TK-10 renal
Compound,TGI (IGROV1 ovarian),TGI (HL-60(TB) leukemia),TGI (SN12C renal),TGI (ACHN renal),TGI (UACC-257 melanoma),TGI (A549 NSCLC),TGI (SW-620 colon),TGI (HOP-92 NSCLC),TGI (U251 CNS),TGI (TK-10 renal),GI50 (IGROV1 ovarian),GI50 (HL-60(TB) leukemia),GI50 (SN12C renal),GI50 (ACHN renal),GI50 (UACC-257 melanoma),GI50 (A549 NSCLC),GI50 (SW-620 colon),GI50 (HOP-92 NSCLC),GI50 (U251 CNS),GI50 (TK-10 renal)
COc1ccc2c3c([nH]c2c1[N+](=O)[O-])C(C)N(C)CC3 (stereo not given),> 100 µM,> 100 µM,> 100 µM,> 100 µM,> 100 µM,> 100 µM,> 100 µM,> 100 µM,> 100 µM,> 100 µM,–,–,–,–,–,–,–,–,–,–
CCOC(=O)CCC(=O)C1c2cccc(O)c2C(=O)c2c(O)cc(C)cc21 (stereo not given),0.846 µM,1.8 µM,3.75 µM,2.41 µM,2.8 µM,3.86 µM,2.9 µM,3.04 µM,0.65 µM,3.39 µM,–,–,–,–,–,–,–,–,–,–
COc1ccc(C(=O)c2cc(C)c(OC)c(C)c2)c(OC)c1O,> 100 µM,0.0876 µM,> 100 µM,> 100 µM,> 100 µM,> 100 µM,> 100 µM,> 100 µM,> 100 µM,> 100 µM,0.672 µM,0.0276 µM,0.0786 µM,0.0566 µM,32.9 µM,0.32 µM,0.0366 µM,0.247 µM,0.0485 µM,25 µM
CN(C)CCC1(C2=CCCC2)CC/C(=C\c2ccc(Cl)cc2)C1=O (stereo not given),21 µM,3.91 µM,24.3 µM,23.8 µM,8.62 µM,26.9 µM,24.2 µM,15.4 µM,21.8 µM,23.3 µM,–,–,–,–,–,–,–,–,–,–
CCCCNC1CCCCC[C@H]1O (stereo not given in full),> 100 µM,> 100 µM,> 100 µM,> 100 µM,> 100 µM,> 100 µM,> 100 µM,> 100 µM,> 100 µM,> 100 µM,–,–,–,–,–,–,–,–,–,–
COc1ccc(C(=O)c2cc(OC)c(OC)c(OC)c2)cc1/C=C/C(=O)c1ccc(F)cc1,6.73 µM,> 100 µM,8.18 µM,3.23 µM,49.7 µM,> 100 µM,7.44 µM,34.9 µM,3.54 µM,30.9 µM,2.59 µM,4.8 µM,2.62 µM,1.68 µM,12.3 µM,16.5 µM,2.53 µM,2.7 µM,1.85 µM,4.43 µM
Cc1cc(C(=O)Nc2ccc3cc(CN4CCOCC4)ccc3n2)c(C)n1-c1ccccc1,44.8 µM,5.06 µM,> 92.3 µM,42.3 µM,4.07 µM,12.1 µM,30.5 µM,40.3 µM,> 100 µM,58.5 µM,3.92 µM,1.71 µM,5.75 µM,2.6 µM,1.27 µM,2.42 µM,4.18 µM,2.15 µM,3.78 µM,4.75 µM
